Data published in patent publication US4710505A, “Asymmetric heterocyclic ester derivatives of 1,4-dihydropyridine-3,5-dicarboxylic acids” (Societe de Recherches Industrielles (S.O.R.I.), priority 1985, dated 1987).
Read-outs that look alike come from different tables or passages of the source.

Key:
[1] = test system: spontaneously hypertensive rats; assay: Antihypertensive activity in spontaneously hypertensive rats, intravenous administration; assay type: in vivo
Text: 2. Intravenous administration
Spontaneously hypertensive rats aged between 16 and 20 weeks are used. They are anesthetized with diethyl ether, a cannula is inserted into the caudal artery to measure the arterial pressure and a catheter is inserted into the right jugular vein to administer the compounds as described previously (L. S. Watson and L. T. Ludden, New Antihypertensive Drugs, pages 87-96, Spectrum Publication, Inc., 1976).
Each curve C relates to the control group receiving only the vehicle and each curve T relates to the treated group [n (number of animals per group)=4-7]. The said groups are compared either by analysis of variance, if the variances are homogenous (Bartlett's homocedasticity test), or by Kruskall-Wallis's non-parametric test (the statistically significant results being represented as follows:
FIGS. 1-6 relate to the variation in systolic pressure, expressed in mm Hg (1 mm Hg corresponds approximately to 1.333×10^2 Pa), as a function of time, expressed in minutes, and FIGS. 1a-6a relate to the variation in diastolic pressure, also expressed in mm Hg, as a function of time, expressed in minutes, for the treated groups (curves T) compared with the corresponding control groups (curves C), the doses of products administered being as follows:
FIGS. 2 and 2a: nicardipine at 30 μg/kg i.v.,
FIGS. 3 and 3a: Example 2 at 30 μg/kg i.v.,
FIGS. 4 and 4a: Example 7 at 100 μg/kg i.v.,
FIGS. 5 and 5a: Example 8 at 300 μg/kg i.v., and
FIGS. 6 and 6a: Example 11 at 30 and 100 μg/kg i.v. (curves T1 and T2).

[2] = in vivo; details: rat, intravenous, male Wistar rats weighing 300 g
Method: The LD50 was determined by intravenous administration to male Wistar rats weighing 300 g.

[3] = test system: spontaneously hypertensive rats; assay: Antihypertensive activity in spontaneously hypertensive rats, oral administration; assay type: in vivo; details: 30 mg/kg; for change in vivo at 30 mg/kg: Rattus norvegicus
Method: Spontaneously hypertensive rats aged between 16 and 20 weeks are used. The systolic pressure is measured by plethysmography and the heart rate is obtained from the pressure graph. The compounds studied are administered orally.

[4] = test system: anesthetized dogs; assay: Hemodynamic effects on anesthetized dogs, intraduodenal administration; assay type: in vivo, Mongrel dogs; details: 0.5 mg/kg
Method: III. HEMODYNAMIC EFFECTS ON ANESTHETIZED DOGS Mongrel dogs are anesthetized with pentobarbital sodium (25 mg/kg i.v.). Each animal is placed under artificial respiration and a catheter is introduced into the aorta to measure the arterial pressure. The outputs of the aorta (O. Aor.), right femoral artery (O. Fem.) and left coronary artery (descending part) (O. Cor.) are measured continuously by means of electromagnetic rings. The total peripheral resistances (T.P.R.) are also calculated. […]

[5] = test system: rabbit aorta; assay: Relaxing effect on isolated rabbit aorta contracted (depolarized) by KCl; details: Oryctolagus cuniculus; rabbit aorta depolarized by 127 mM KCl; read-out: ED50 (dose causing a 50% relaxation of the precontracted arteries)
Method: I. RELAXING EFFECT ON ISOLATED RABBIT AORTA CONTRACTED BY KCl
The thoracic aortae of male rabbits are removed, cut into narrow strips and placed under tension in an oxygenated survival medium. The contractions of these arteries, the amplitude of which is measured using a myograph, are induced by a 127 mM solution of KCl [R. Towart et al., Arzneim.-Forsch./Drug Res. 32, 338-346 (1982)]. The compounds studied are dissolved in a mixture of anhydrous ethanol and double distilled water (1:1) v/v, the percentage of ethanol in the baths being less than or equal to 0.3% at the end of the experiment. When the contraction plateau is reached, the compound is added to the medium in increasing doses every 15 minutes.

[6] = versus nicardipine and nifedipine

COC(=O)C1=C(C)NC(C)=C(C(=O)OCC2COC3(CCCCC3)O2)C1c1cccc([N+](=O)[O-])c1 (centres unmarked) [Example 2, methyl (1,4-dioxaspiro[4,5]decan-2-yl)methyl 1,4-dihydro-2,6-dimethyl-4-(3-nitrophenyl)pyridine-3,5-dicarboxylate]
drop in systolic and diastolic pressures (in words) ([1]; 30 μg/kg i.v., versus nicardipine 30 μg/kg and nifedipine 300 μg/kg i.v.): greater drop in systolic and diastolic pressures than nicardipine at the same dose and nifedipine at 10 times the dose
duration of the antihypertensive effect (in words) ([1]; single i.v. dose, Ex. 2 30, Ex. 7 100, Ex. 8 300, Ex. 11 30 and 100 μg/kg, versus nicardipine and nifedipine): notably longer than that of nicardipine and nifedipine
LD50 [2]: 27.9 mg/kg
duration of the effect, Systolic pressure [3]: > 24 h
change in vivo at 30 mg/kg ([3]; read-out: % variation Heart rate): 24.5%
change in vivo at 30 mg/kg ([3]; read-out: % variation Systolic pressure): -45.4 ± 6.3%
% variation D.P. (diastolic pressure) [4]: -41.2%
% variation O. Aor. (output of the aorta) [4]: +40.2%
% variation O. Cor. (output of left coronary artery) [4]: +89.5%
% variation O. Fem. (output of right femoral artery) [4]: +180.5%
duration of the effect, D.P. (diastolic pressure) [4]: 240 min
duration of the effect, O. Aor. (output of the aorta) [4]: 300 min
duration of the effect, O. Cor. (output of left coronary artery) [4]: 300 min
duration of the effect, O. Fem. (output of right femoral artery) [4]: 300 min
% variation T.P.R. (total peripheral resistances) ([4]; calculated): -53.4%
duration of the effect, T.P.R. (total peripheral resistances) ([4]; calculated): 300 min
cardiac, femoral and coronary outputs (in words) [4, 6]: increased for a longer time and to a greater extent
drop in total peripheral resistances (in words) [4, 6]: greater drop in total peripheral resistances than nicardipine and nifedipine
duration of drop in total peripheral resistances (in words) [4, 6]: considerably longer
EC50 [5]: 50 nM
